Data from ChEMBL document CHEMBL5055633, “Amphipathic Barbiturates as Mimics of Antimicrobial Peptides and the Marine Natural Products Eusynstyelamides with Activity against Multi-resistant Clinical Isolates” (J Med Chem, 2021).

How the values were obtained:
[1] = system: Acinetobacter baumannii; test: Antimicrobial activity against oxacillinase-23 producing Acinetobacter baumannii K63-58 assessed as reduction in bacterial growth incubated for 48 hrs by microdilution method; assay type: functional
[2] = Antimicrobial activity against New Delhi metallo-beta lactamase-1 and oxacillinase -181 producing Klebsiella pneumoniae 50531633 assessed as reduction in bacterial growth incubated for 48 hrs by microdilution method; assay type: functional
[3] = system: Enterococcus faecium; test: Antimicrobial activity against extended spectrum-lactamase-carbapenemas producing Enterococcus faecium strain 50673722 assessed as reduction in bacterial growth incubated for 48 hrs by microdilution method; assay type: functional
[4] = system: Enterococcus faecium; test: Antimicrobial activity against extended spectrum-lactamase-carbapenemas producing Enterococcus faecium strain K36-18 assessed as reduction in bacterial growth incubated for 48 hrs by microdilution method; assay type: functional
[5] = system: Staphylococcus aureus; test: Antimicrobial activity against extended spectrum-lactamase-carbapenemas producing Staphylococcus aureus N315 assessed as reduction in bacterial growth incubated for 48 hrs by microdilution method; assay type: functional
[6] = Hemolytic activity in human erythrocytes incubated for 1 hr by microplate reader; assay type: functional, cell-based; conditions: erythrocyte
[7] = system: Acinetobacter baumannii; test: Antimicrobial activity against oxacillinase-58 producing Acinetobacter baumannii K12-21 assessed as reduction in bacterial growth incubated for 48 hrs by microdilution method; assay type: functional
[8] = system: Escherichia coli; test: Antimicrobial activity against New Delhi metallo-beta lactamase-1 producing Escherichia coli 50676002 assessed as reduction in bacterial growth incubated for 48 hrs by microdilution method; assay type: functional
[9] = Antimicrobial activity against New Delhi metallo-beta lactamase-1 Klebsiella pneumoniae K66-45 assessed as reduction in bacterial growth incubated for 48 hrs by microdilution method; assay type: functional
[10] = Antimicrobial activity against carbapenemase producing Klebsiella pneumoniae K47-25 assessed as reduction in bacterial growth incubated for 48 hrs by microdilution method; assay type: functional
[11] = system: Corynebacterium glutamicum; test: Antimicrobial activity against Corynebacterium glutamicum ATCC 13032 assessed as reduction in bacterial growth incubated for 48 hrs by microdilution susceptibility test; assay type: functional
[12] = system: Staphylococcus aureus; test: Antimicrobial activity against extended spectrum-lactamase-carbapenemas producing Staphylococcus aureus NCTC 10442 assessed as reduction in bacterial growth incubated for 48 hrs by microdilution method; assay type: functional
[13] = system: Pseudomonas aeruginosa; test: Antimicrobial activity against imipenem-type carbapenemase-14 producing Pseudomonas aeruginosa K44-24 assessed as reduction in bacterial growth incubated for 48 hrs by microdilution method; assay type: functional
[14] = Antimicrobial activity against verona integron-encoded metallo-beta-lactamase -1 producing Klebsiella pneumoniae 50667959 assessed as reduction in bacterial growth incubated for 48 hrs by microdilution method; assay type: functional
[15] = system: Escherichia coli; test: Antimicrobial activity against verona integron-encoded metallo-beta-lactamase-29-producing Escherichia coli 50639799 assessed as reduction in bacterial growth incubated for 48 hrs by microdilution method; assay type: functional
[16] = system: Pseudomonas aeruginosa; test: Antimicrobial activity against verona integron-encoded metallo-beta-lactamase-4 producing Pseudomonas aeruginosa K34-73 assessed as reduction in bacterial growth incubated for 48 hrs by microdilution method; assay type: functional
[17] = system: Staphylococcus aureus; test: Antimicrobial activity against Staphylococcus aureus ATCC 9144 assessed as reduction in bacterial growth incubated for 48 hrs by microdilution susceptibility test; assay type: functional
[18] = Antimicrobial activity against oxacillinase-245 producing Klebsiella pneumoniae 50625602 assessed as reduction in bacterial growth incubated for 48 hrs by microdilution method; assay type: functional
[19] = system: Staphylococcus aureus; test: Antimicrobial activity against extended spectrum-lactamase-carbapenemas producing Staphylococcus aureus strain WIS assessed as reduction in bacterial growth incubated for 48 hrs by microdilution method; assay type: functional
[20] = system: MRC5; test: Cytotoxicity against human MRC5 cells assessed as reduction in cell viability incubated for 24 hrs by colorimetric tetrazolium assay; assay type: functional, cell-based; conditions: MRC5, 24 h
[21] = system: Escherichia coli; test: Antimicrobial activity against New Delhi metallo-beta lactamase-1 producing Escherichia coli 50739822 assessed as reduction in bacterial growth incubated for 48 hrs by microdilution method; assay type: functional
[22] = system: Escherichia coli; test: Antimicrobial activity against Escherichia coli ATCC 25922 assessed as reduction in bacterial growth incubated for 48 hrs by microdilution susceptibility test; assay type: functional
[23] = system: Acinetobacter baumannii; test: Antimicrobial activity against oxacillinase-24 producing Acinetobacter baumannii K55-13 assessed as reduction in bacterial growth incubated for 48 hrs by microdilution method; assay type: functional
[24] = system: Enterococcus faecium; test: Antimicrobial activity against extended spectrum-lactamase-carbapenemas producing Enterococcus faecium strain TUH.50-22 assessed as reduction in bacterial growth incubated for 48 hrs by microdilution method; assay type: functional
[25] = system: Escherichia coli; test: Antimicrobial activity against imipenem-type carbapenemase-26 producing Escherichia coli 50857972 assessed as reduction in bacterial growth incubated for 48 hrs by microdilution method; assay type: functional
[26] = system: Staphylococcus aureus; test: Antimicrobial activity against extended spectrum-lactamase-carbapenemas producing Staphylococcus aureus strain 85/2082 assessed as reduction in bacterial growth incubated for 48 hrs by microdilution method; assay type: functional
[27] = system: HepG2; test: Cytotoxicity against human HepG2 cells assessed as reduction in cell viability incubated for 24 hrs by colorimetric tetrazolium assay; assay type: functional, cell-based; conditions: HepG2, 24 h
[28] = system: Pseudomonas aeruginosa; test: Antimicrobial activity against verona integron-encoded metallo-beta-lactamase-2 producing Pseudomonas aeruginosa K34-7 assessed as reduction in bacterial growth incubated for 48 hrs by microdilution method; assay type: functional
[29] = system: Acinetobacter baumannii; test: Antimicrobial activity against oxacillinase-23 producing Acinetobacter baumannii K47-42 assessed as reduction in bacterial growth incubated for 48 hrs by microdilution method; assay type: functional
[30] = system: Enterococcus faecium; test: Antimicrobial activity against extended spectrum-lactamase-carbapenemas producing Enterococcus faecium strain 50758899 assessed as reduction in bacterial growth incubated for 48 hrs by microdilution method; assay type: functional
[31] = system: Staphylococcus aureus; test: Antimicrobial activity against extended spectrum-lactamase-carbapenemas producing Staphylococcus aureus strain IHT 99040 assessed as reduction in bacterial growth incubated for 48 hrs by microdilution method; assay type: functional
[32] = system: Pseudomonas aeruginosa; test: Antimicrobial activity against verona integron-encoded metallo-beta-lactamase producing Pseudomonas aeruginosa 50692520 assessed as reduction in bacterial growth incubated for 48 hrs by microdilution method; assay type: functional
[33] = system: Enterococcus faecium; test: Antimicrobial activity against extended spectrum-lactamase-carbapenemas producing Enterococcus faecium strain 50901530 assessed as reduction in bacterial growth incubated for 48 hrs by microdilution method; assay type: functional
[34] = system: Acinetobacter baumannii; test: Antimicrobial activity against oxacillinase-23 producing Acinetobacter baumannii K44-35 assessed as reduction in bacterial growth incubated for 48 hrs by microdilution method; assay type: functional
[35] = system: Pseudomonas aeruginosa; test: Antimicrobial activity against Pseudomonas aeruginosa PAO1 assessed as reduction in bacterial growth incubated for 48 hrs by microdilution susceptibility test; assay type: functional
[36] = system: Pseudomonas aeruginosa; test: Antimicrobial activity against New Delhi metallo-beta lactamase-1 producing Pseudomonas aeruginosa 50692172 assessed as reduction in bacterial growth incubated for 48 hrs by microdilution method; assay type: functional
[37] = system: Escherichia coli; test: Antimicrobial activity against oxacillinase-producing Escherichia coli 50579417 assessed as reduction in bacterial growth incubated for 48 hrs by microdilution method; assay type: functional

NCCCCN1C(=O)N(CCCCN)C(=O)C(Cc2cc(C(F)(F)F)cc(C(F)(F)F)c2)(Cc2cc(C(F)(F)F)cc(C(F)(F)F)c2)C1=O.O=C(O)C(F)(F)F.O=C(O)C(F)(F)F
177 µg/mL: EC50 [6]
9 µg/mL: IC50 [27]
> 32 µg/mL: MIC [10]
8 µg/mL: MIC [3] | MIC [24] | MIC [25] | MIC [33]
32 µg/mL: MIC [1] | MIC [2] | MIC [9] | MIC [13] | MIC [14] | MIC [16] | MIC [18] | MIC [23] | MIC [28] | MIC [29] | MIC [32] | MIC [34] | MIC [36]
16 µg/mL: MIC [4] | MIC [5] | MIC [7] | MIC [8] | MIC [12] | MIC [15] | MIC [17] | MIC [19] | MIC [21] | MIC [22] | MIC [26] | MIC [30] | MIC [31] | MIC [35] | MIC [37]
17 µg/mL: IC50 [20]
4 µg/mL: MIC [11]

N=C(N)NCCCCN1C(=O)N(CCCCNC(=N)N)C(=O)C(Cc2cc(C(F)(F)F)cc(C(F)(F)F)c2)(Cc2cc(C(F)(F)F)cc(C(F)(F)F)c2)C1=O.O=C(O)C(F)(F)F.O=C(O)C(F)(F)F
19 µg/mL: IC50 [27]
8 µg/mL: MIC [18] | MIC [21] | MIC [35] | MIC [37]
2 µg/mL: MIC [3] | MIC [5] | MIC [11] | MIC [12] | MIC [17] | MIC [19] | MIC [22] | MIC [24] | MIC [26] | MIC [31] | MIC [33]
16 µg/mL: MIC [1] | MIC [2] | MIC [7] | MIC [9] | MIC [10] | MIC [13] | MIC [14] | MIC [16] | MIC [23] | MIC [28] | MIC [29] | MIC [32] | MIC [34] | MIC [36]
98 µg/mL: EC50 [6]
4 µg/mL: MIC [4] | MIC [8] | MIC [15] | MIC [25] | MIC [30]
29 µg/mL: IC50 [20]

CC(C)(C)c1cc(CC2(Cc3cc(C(C)(C)C)cc(C(C)(C)C)c3)C(=O)N(CCCCN)C(=O)N(CCCCN)C2=O)cc(C(C)(C)C)c1.O=C(O)C(F)(F)F.O=C(O)C(F)(F)F
2 µg/mL: MIC [3] | MIC [4] | MIC [5] | MIC [12] | MIC [19] | MIC [22] | MIC [24] | MIC [26] | IC50 [27] | MIC [30] | MIC [31] | MIC [33]
0.25 µg/mL: MIC [11]
8 µg/mL: MIC [2] | MIC [8] | MIC [9] | MIC [13] | MIC [14] | MIC [18] | MIC [28] | MIC [32] | MIC [36]
1 µg/mL: MIC [17] | IC50 [20]
< 5 µg/mL: EC50 [6]
4 µg/mL: MIC [1] | MIC [7] | MIC [15] | MIC [21] | MIC [23] | MIC [25] | MIC [29] | MIC [34] | MIC [35] | MIC [37]
16 µg/mL: MIC [10] | MIC [16]

NCCCCN1C(=O)N(CCCCN)C(=O)C(Cc2ccc(Br)c(Cl)c2)(Cc2ccc(Br)c(Cl)c2)C1=O.O=C(O)C(F)(F)F.O=C(O)C(F)(F)F
172 µg/mL: EC50 [6]
4 µg/mL: MIC [17] | MIC [24] | MIC [26] | MIC [31]
32 µg/mL: MIC [1] | MIC [7] | MIC [9] | MIC [10] | MIC [13] | MIC [14] | MIC [16] | MIC [18] | MIC [23] | MIC [28] | MIC [29] | MIC [32] | MIC [34] | MIC [35] | MIC [36]
6 µg/mL: IC50 [27]
16 µg/mL: MIC [2] | MIC [3] | MIC [4] | MIC [8] | MIC [15] | MIC [21] | MIC [22] | MIC [25] | MIC [30] | MIC [37]
10 µg/mL: IC50 [20]
8 µg/mL: MIC [5] | MIC [12] | MIC [19] | MIC [33]
1 µg/mL: MIC [11]

N=C(N)NCCCCN1C(=O)N(CCCCNC(=N)N)C(=O)C(Cc2ccc3ccccc3c2)(Cc2ccc3ccccc3c2)C1=O.O=C(O)C(F)(F)F.O=C(O)C(F)(F)F
30 µg/mL: IC50 [20]
133 µg/mL: EC50 [6]
59 µg/mL: IC50 [27]
1 µg/mL: MIC [17] | MIC [22]
32 µg/mL: MIC [1] | MIC [7] | MIC [13] | MIC [16] | MIC [23] | MIC [28] | MIC [29] | MIC [32] | MIC [34] | MIC [36]
16 µg/mL: MIC [2] | MIC [3] | MIC [4] | MIC [9] | MIC [10] | MIC [14] | MIC [18] | MIC [30] | MIC [37]
8 µg/mL: MIC [5] | MIC [8] | MIC [12] | MIC [15] | MIC [19] | MIC [21] | MIC [24] | MIC [25] | MIC [26] | MIC [31] | MIC [33] | MIC [35]
0.25 µg/mL: MIC [11]

NCCCCN1C(=O)N(CCCCN)C(=O)C(Cc2ccc(C(F)(F)F)cc2)(Cc2ccc(C(F)(F)F)cc2)C1=O.O=C(O)C(F)(F)F.O=C(O)C(F)(F)F
16 µg/mL: IC50 [20]
40 µg/mL: IC50 [27]
> 398 µg/mL: EC50 [6]
64 µg/mL: MIC [17] | MIC [35]
128 µg/mL: MIC [22]
4 µg/mL: MIC [11]
> 32 µg/mL: MIC [1] | MIC [2] | MIC [3] | MIC [4] | MIC [5] | MIC [7] | MIC [8] | MIC [9] | MIC [10] | MIC [12] | MIC [13] | MIC [14] | MIC [15] | MIC [16] | MIC [18] | MIC [19] | MIC [21] | MIC [23] | MIC [24] | MIC [25] | MIC [26] | MIC [28] | MIC [29] | MIC [30] | MIC [31] | MIC [32] | MIC [33] | MIC [34] | MIC [36] | MIC [37]
